Here are results for 54 compounds from BindingDB's records for doi:10.7270/Q2ZC817P (The Scripps Research Institute Molecular Screening Center, 2007).

Structures can show the parent of a compound that is named as a salt.

Sequence of Sphingosine 1-phosphate receptor 1 (P21453 whole entry): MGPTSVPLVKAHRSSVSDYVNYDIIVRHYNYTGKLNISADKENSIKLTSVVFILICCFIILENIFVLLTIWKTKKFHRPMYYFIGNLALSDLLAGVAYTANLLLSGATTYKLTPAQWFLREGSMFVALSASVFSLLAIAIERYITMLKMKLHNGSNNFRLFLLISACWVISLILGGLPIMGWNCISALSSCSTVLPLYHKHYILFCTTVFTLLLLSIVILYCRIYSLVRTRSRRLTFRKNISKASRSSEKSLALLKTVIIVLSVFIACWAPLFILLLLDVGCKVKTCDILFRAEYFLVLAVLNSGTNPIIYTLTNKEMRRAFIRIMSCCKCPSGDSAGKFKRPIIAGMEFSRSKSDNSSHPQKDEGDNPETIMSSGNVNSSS

The first assay addresses Sphingosine 1-phosphate receptor 1 (Homo sapiens, UniProt P21453). Briefly: S1P1 agonism potentiation – cell-based, potentiator mode, 60K MLSMR set, dose response (AID 466).
Conditions: not given
Usually EC50 stands for the concentration giving half of the maximal effect. On to `C=CCN1/C(=N/c2cccnc2)SCC1(O)c1ccc(C)cc1` (centres undefined) [(2E)-3-allyl-4-(4-methylphenyl)-2-(pyridin-3-ylimino)-1,3-thiazolidin-4-ol], for which the 50% effective concentration (EC50) was determined as 7.92 µM.

`Fc1ccccc1COc1ccc(C=Nn2cnnc2)cc1` [1-[4-[(2-fluorophenyl)methoxy]phenyl]-N-(1,2,4-triazol-4-yl)methanimine]: the half-maximal effective concentration (EC50) was determined as 4.74 µM.

In the case of `CCOc1cc(C2NCc3ccccc3-n3cccc32)ccc1O` (centres undefined) [4-(5,6-dihydro-4H-pyrrolo[1,2-a][1,4]benzodiazepin-4-yl)-2-ethoxy-phenol;hydrochloride], the EC50 amounted to 15 µM.

For `CC(C)(C)OC(=O)N[C@@H](Cc1ccccc1)c1nnc(S(=O)(=O)Cc2cccc(F)c2)o1` [tert-butyl N-[(1S)-1-[5-[(3-fluorophenyl)methylsulfonyl]-1,3,4-oxadiazol-2-yl]-2-phenylethyl]carbamate], the concentration for a half-maximal effect (EC50) is 9.88 µM.

For the compound `CCOC(=O)CN1C(=O)C(C)(C)Oc2ccc(C(=O)Nc3ccccc3OC)cc21` [2-[3-keto-6-[(2-methoxyphenyl)carbamoyl]-2,2-dimethyl-1,4-benzoxazin-4-yl]acetic acid ethyl ester], the half-maximal effective concentration (EC50) turned out to be 3.12 µM.

Turning to `CCCCc1ccc(C2C(C#N)C(=N)SC(=N)C2C#N)s1` (centres undefined) [2,6-bis(azanyl)-4-(5-butylthiophen-2-yl)-4H-thiopyran-3,5-dicarbonitrile], the half-maximal effective concentration (EC50) turned out to be 13.7 µM.

For `Cc1ccc2[nH]c3c(N4CCN(Cc5ccc6c(c5)OCO6)CC4)ncnc3c2c1`, the concentration for a half-maximal effect (EC50) is over 30 µM.

For `CCCc1cc(C(=O)Nc2sc(C)c(CC)c2C#N)no1` [MLS000116385], the concentration giving a half-maximal response (EC50) stood at 3.08 µM.

Consider `Cc1nn(-c2nc3ccccc3s2)c(N)c1-c1ccccc1` [1-(1,3-benzothiazol-2-yl)-3-methyl-4-phenyl-1H-pyrazol-5-amine], for which the EC50 was 0.385 µM.

With `CCOC(=O)Nc1ccc2c(c1)N(C(=O)CCN(C)C)c1ccccc1S2` [MLS000038082], the EC50 is 48.7 µM.

On to `O=C(C1CCC1)N1CCc2cc(S(=O)(=O)Nc3ccc4c(c3)OCCO4)ccc21` [1-(cyclobutanecarbonyl)-N-(2,3-dihydro-1,4-benzodioxin-6-yl)-2,3-dihydroindole-5-sulfonamide], for which the EC50 was over 30 µM.

As to `CCCc1cc(C(=O)N2CCN(C(c3ccccc3)c3ccccc3)CC2)no1` [(4-benzhydrylpiperazin-1-yl)-(5-propyl-1,2-oxazol-3-yl)methanone], the EC50 was found to be 5.97 µM.

`Cc1nnc2ccc(Oc3ccc(-c4ccccc4)cc3)nn12` [3-methyl-6-(4-phenylphenoxy)-[1,2,4]triazolo[4,3-b]pyridazine]: the EC50 stood at 5.31 µM.

As for `O=C(Nc1c(F)cc(F)cc1Br)c1cc(-c2ccc(O)cc2)on1` [MLS000116264], the concentration for a half-maximal effect (EC50) was determined as 2.14 µM.

As to `N#Cc1ccc(NC(=O)Nc2ccc(Cl)cc2)cc1` [1-(4-chlorophenyl)-3-(4-cyanophenyl)urea], the EC50 stood at 7.91 µM.

Consider `O=C(Nc1ccc(N2CCOCC2)c(Cl)c1)c1cccc(F)c1` [MLS000066209], for which the half-maximal effective concentration (EC50) is 0.935 µM.

Consider `CCOc1ccc(C2CC(c3cccc(OC)c3OC)n3nnnc3N2)cc1Cl` (centres undefined) [5-(3-chloranyl-4-ethoxy-phenyl)-7-(2,3-dimethoxyphenyl)-1,5,6,7-tetrahydro-[1,2,3,4]tetrazolo[1,5-a]pyrimidine], for which the EC50 is 68.9 µM.

As to `CCc1oc2ccccc2c1C(=O)c1cc(Br)c(O)c(Br)c1`, the concentration giving a half-maximal response (EC50) was determined as 5.13 µM.

Regarding `Cc1nc2sccn2c1-c1csc(NCc2ccccc2)n1` [4-(6-methyl-5-imidazo[2,1-b]thiazolyl)-N-(phenylmethyl)-2-thiazolamine], the EC50 worked out at 3.6 µM.

With `CCOC(=O)c1oc2cc(O)c(CC)cc2c(=O)c1-c1ccc2c(c1)OCCO2` [3-(2,3-dihydro-1,4-benzodioxin-6-yl)-6-ethyl-7-hydroxy-4-keto-chromene-2-carboxylic acid ethyl ester], the concentration for a half-maximal effect (EC50) was over 10 µM.

With `Cc1oc2cc(O)cc(O)c2c(=O)c1-c1ccc2c(c1)OCCCO2` [3-(3,4-dihydro-2H-1,5-benzodioxepin-7-yl)-2-methyl-5,7-bis(oxidanyl)chromen-4-one], the EC50 turned out to be 3.73 µM.

As for `Cc1cc(C)cc(-c2nc(-c3ccncc3)no2)c1` [5-(3,5-dimethylphenyl)-3-(4-pyridyl)-1,2,4-oxadiazole], the EC50 is 1.44 µM.

For the compound `COc1ccc(OC)c(-c2cc(C(=O)Nc3c(C)nn(Cc4ccc(Cl)cc4)c3C)no2)c1` [MLS000087191], the EC50 is over 10 µM.

`Cn1c(=O)oc2cc(S(=O)(=O)N3CCCC(C(=O)N4CC=C(c5ccccc5)CC4)C3)ccc21` (centres undefined) [3-methyl-6-[3-(4-phenyl-3,6-dihydro-2H-pyridine-1-carbonyl)piperidin-1-yl]sulfonyl-1,3-benzoxazol-2-one]: the half-maximal effective concentration (EC50) is 9.49 µM.

Turning to `CC(C)c1cc(C(=O)N2CCN(C(c3ccccc3)c3ccccc3)CC2)no1` [(4-benzhydrylpiperazin-1-yl)-(5-propan-2-yl-1,2-oxazol-3-yl)methanone], the concentration for a half-maximal effect (EC50) is 8.42 µM.

For `CCOC(=O)/C=C/S(=O)(=O)c1ccc(NC(C)=O)cc1`, the 50% effective concentration (EC50) is over 10 µM.

On to `COc1ccc(-n2c(O)cc(Sc3nnc[nH]3)c2O)c(OC)c1` [1-(2,4-dimethoxyphenyl)-3-(1H-1,2,4-triazol-5-ylthio)pyrrolidine-2,5-dione], for which the concentration giving a half-maximal response (EC50) was 16.4 µM.

For the compound `Cc1cc(N2CCN(c3nc4ccccc4s3)CC2)n2ncnc2n1` [2-[4-(5-methyl-[1,2,4]triazolo[1,5-a]pyrimidin-7-yl)-1-piperazinyl]-1,3-benzothiazole], the 50% effective concentration (EC50) came to 6.29 µM.

For `O=S(=O)(c1cccs1)N1CCN(CC(O)COc2cc(Cl)ccc2Cl)CC1` (centres undefined) [1-(2,5-dichlorophenoxy)-3-(4-thiophen-2-ylsulfonyl-1-piperazinyl)-2-propanol], the EC50 was found to be 4.33 µM.

Take `c1ccc(-c2ccc(-c3nc(-c4cccnc4)no3)cc2)cc1` [5-(4-phenylphenyl)-3-(3-pyridinyl)-1,2,4-oxadiazole]: the EC50 was determined as 1.91 µM.

`CCOc1ccc(C(C)=O)cc1-n1c(O)c2c(c1O)C1C=CC2O1` [MLS000087730]: the EC50 was determined as 10.8 µM.

Turning to `COc1cc(CSc2nnnn2-c2ccc(C)cc2)cc(OC)c1OC` [1-(4-methylphenyl)-5-[(3,4,5-trimethoxybenzyl)thio]-1H-tetrazole], the EC50 worked out at 2.87 µM.

With `CCC1CCCCN1C(=O)CSc1nnc(-c2c[nH]c3ccccc23)o1` (centres undefined), the EC50 is 4.61 µM.

Consider `CC(C)Cc1cc(C(=O)Nc2sc3c(c2C#N)CCCC3)no1` [MLS000116410], for which the EC50 stood at 9.59 µM.

Turning to `CC1CCc2nc(NC(=O)CSc3nc4ccccc4o3)sc2C1` (centres undefined) [2-(1,3-benzoxazol-2-ylsulfanyl)-N-(6-methyl-4,5,6,7-tetrahydro-1,3-benzothiazol-2-yl)acetamide], the concentration for a half-maximal effect (EC50) is over 30 µM.

As to `c1ccc(C(Cc2nc(-c3cccnc3)no2)c2ccccc2)cc1` [5-(2,2-diphenylethyl)-3-(3-pyridinyl)-1,2,4-oxadiazole], the EC50 was determined as 2.66 µM.

Turning to `Fc1ccc2[nH]c3c(N4CCN(c5ccccc5)CC4)ncnc3c2c1`, the EC50 turned out to be 9.52 µM.

The same assay, now with this note: inactive by the depositor's call.
Turning to `CC(C)Cn1c(=O)c(C(=O)Nc2ccccc2S(N)(=O)=O)c(O)c2ccccc21` [1-(2-methylpropyl)-2-oxidanyl-4-oxidanylidene-N-(2-sulfamoylphenyl)quinoline-3-carboxamide], the EC50 is 14.4 µM.

With `CCOC(=O)N1CCC(NC(=O)C2CCCN(Cc3nc(-c4cccc(Cl)c4)oc3C)C2)CC1` (centres undefined) [4-[[1-[[2-(3-chlorophenyl)-5-methyl-oxazol-4-yl]methyl]nipecotoyl]amino]piperidine-1-carboxylic acid ethyl ester], the EC50 came out at 20.1 µM.

For the compound `CC(C)Cc1cc(C(=O)Nc2cc(Br)ccc2O)no1` [MLS000116399], the EC50 turned out to be 16.5 µM.

For the compound `Cc1ccc(S(=O)(=O)n2nc(C)c(Br)c2C)c(C)c1C` [4-bromanyl-3,5-dimethyl-1-(2,3,4-trimethylphenyl)sulfonyl-pyrazole], the EC50 is 83.1 µM.

As to `COc1cccc(-c2cc(C(=O)Nc3ccccc3SC)no2)c1` [5-(3-methoxyphenyl)-N-(2-methylsulfanylphenyl)-1,2-oxazole-3-carboxamide], the concentration for a half-maximal effect (EC50) worked out at 16 µM.

Consider `CC(C)OCCCNc1ncnc2c1[nH]c1ccccc12` [MLS000041327], for which the EC50 came out at 13.2 µM.

In the case of `Cc1ccc2[nH]c3c(NCc4ccco4)ncnc3c2c1` [MLS000040855], the EC50 was 10.8 µM.

As to `CN1c2ccccc2C(C)(C)C12C=Cc1cc(O)ccc1O2` (centres undefined) [1',3',3'-trimethyl-6-spiro[1-benzopyran-2,2'-indole]ol], the EC50 worked out at 12.3 µM.

With `O=C(Nc1ccc(Oc2ccccc2)cc1)c1cnc2n(c1=O)CCS2` [5-keto-N-(4-phenoxyphenyl)-2,3-dihydrothiazolo[3,2-a]pyrimidine-6-carboxamide], the EC50 is 19.9 µM.

Regarding `O=C(c1ccco1)N1CCN(c2ncnc3c2[nH]c2ccc(Br)cc23)CC1` [MLS000078404], the EC50 came out at 15.5 µM.

For the compound `CCOC(=O)Cc1csc(NC(=O)c2ccc(Br)s2)n1` [2-[2-[(5-bromothiophene-2-carbonyl)amino]thiazol-4-yl]acetic acid ethyl ester], the EC50 was found to be 16.5 µM.

As for `CC1CC(C)(C)Nc2ccc(OC(=O)c3ccco3)cc21` (centres undefined) [(2,2,4-trimethyl-3,4-dihydro-1H-quinolin-6-yl) furan-2-carboxylate], the concentration for a half-maximal effect (EC50) was 14 µM.

With `Cc1nn(Cc2ccccc2)c(C)c1C(=O)OCC(=O)c1cc(C)n(C2CC2)c1C` [1-benzyl-3,5-dimethyl-pyrazole-4-carboxylic acid [2-(1-cyclopropyl-2,5-dimethyl-pyrrol-3-yl)-2-keto-ethyl] ester], the EC50 was 15.6 µM.

With `COc1ccc(OCCCSc2ncccn2)cc1` [2-[3-(4-methoxyphenoxy)propylsulfanyl]pyrimidine], the EC50 amounted to 48.2 µM.

Take `CCn1nc(-c2cccs2)nc2c(=O)n(C)c(=O)nc1-2` [1-ethyl-6-methyl-3-thiophen-2-yl-pyrimido[5,4-e][1,2,4]triazine-5,7-dione]: the EC50 turned out to be 31.8 µM.

As for `CN1CCN(C(=O)CSc2nc(-c3cccs3)cc(-c3cccs3)c2C#N)CC1` [2-[2-(4-methylpiperazin-1-yl)-2-oxidanylidene-ethyl]sulfanyl-4,6-dithiophen-2-yl-pyridine-3-carbonitrile], the half-maximal effective concentration (EC50) came to 12.9 µM.

Consider `Cc1ccc(C)c(-n2nnnc2Sc2nnnn2-c2ccccc2)c1` [1-(2,5-dimethylphenyl)-5-(1-phenyltetrazol-5-yl)sulfanyltetrazole], for which the EC50 came to 14.8 µM.
